{"source": "patent US6172104A", "about": "“Dicationic dibenzofuran and dibenzothiophene compounds and methods of use thereof” (priority 1999, dated 2001)", "key": {"Pneumocystis carinii [1]": {"test_system": "Pneumocystis carinii", "assay": "Activity against Pneumocystis carinii pneumonia (PCP) in the rat model, dibenzofuran dications (Example 2, Table 2)", "assay_type": "in vivo", "details": "for response vs control in vivo at 10 µmol/kg / response vs control in vivo at 33 µmol/kg / response vs control in vivo at 22 µmol/kg: Pneumocystis carinii, 336 h, read-out: Pneumocystis carinii % Saline control ± std error; for response vs control in vivo at 10 µmol/kg / response vs control in vivo at 22 µmol/kg: iv; for response vs control in vivo at 33 µmol/kg: 33.0 μmol/kg/day by oral gavage", "source_text": "Compounds 1-3 and 5-7 in the initial screen were given once daily by tail vein injection at a dose of 10 μmol/kg/day for 14 days, with activities compared to pentamidine at approximately one-half the effective iv dose of pentamidine, which is 22 μmol/kg/day.\nCompounds 4 and 8 were synthesized to test if diamidoximes would be effective prodrugs of the dibenzofuran diamidines. Both the diamidoximes were screened for anti-P. carinii activity at 10 μmol/kg/day by tail vein injection and 33 μmol/kg/day by oral gavage for 14 days. […] Further studies of diamidoxime metabolism are being performed using cultured cell lines and cell-free enzyme preparations to understand more about the metabolic mechanisms of prodrug activation.\n^a Dose units were μmol/kg/day. Each compound was administered to 8\nrats once daily for 14 days. Doses marked with (*) were by oral gavage,\nall others were i.v. via tail vein.\n^c Cysts/g lung counts for the saline and pentamidine control groups\nwere pooled across experiments. Scores for each compound were reported as\n% of the pooled saline scores. Saline: 47.53 × 10^6 cysts/g lung\n(n = 45). Petamidine: 0.38 × 10^6 cysts/g lung (n = 42)."}, "Pneumocystis carinii [2]": {"test_system": "Pneumocystis carinii", "assay": "animal or person", "assay_type": "in vivo, Pneumocystis carinii; rat", "details": "for response vs control in vivo at 10 µmol/kg: 10.0 μmol/kg/day iv via tail vein, rats (4 rats for 3, 4, 9)", "source_text": "The activity is expressed as the percent of cysts counted in treated groups as compared to untreated controls. All of the compounds in the initial screen were given by tail vein injection at a dose of 10 μmol/kg/day for 14 days. The test compounds were compared for efficacy with the standard anti-PCP compound, pentamidine, at one-half the dose of pentamidine. […] Among the 2,8-substituted derivatives, the diamidine 1 and the bis-N-isopropylamidine 2 were very potent. A dose response study was performed upon compound 2.\n^c Expressed as μmol/kg/day, given iv via tail vain to at least 8\nrats once daily for 14 days, unless stated otherwise.\n^e Cysts/g lung counts were 69.18 (× 10^6) for the saline\ncontrol group and 0.51 (× 10^6) for the pentamidine group. These\nscores were pooled across experiments involving compounds 1-9. Saline: n =\n55; pentamidine: n = 52.\n^g Doses given to 4 rats.\n^h Doses given by oral gavage."}, "whole cells": {"test_system": "whole cells", "assay": "Conversion of diamidoxime to diamidine by whole cells (Example 2)", "assay_type": "in vitro ADME", "details": "preliminary results"}, "Pneumocystis carinii [3]": {"test_system": "Pneumocystis carinii", "details": "rat, in vivo; cited from earlier work"}, "[4]": {"details": "10.0 μmol/kg/day i.v. via tail vein, once daily 14 days, 8 rats"}, "[5]": {"details": "Pneumocystis carinii, in Rattus norvegicus, iv, 336 h, once daily 14 days, read-out: Pneumocystis carinii % Saline control ± std error"}}, "note": "Where a name gives a salt, the structure may show the parent alone.", "data": [{"smiles": "c1cc2c(cc1C1=NCCN1)oc1cc(C3=NCCN3)ccc12", "note": "[Compound 6 (Example 2), 3,7-Di(2-imidazolinyl)dibenzofuran dihydrochloride]", "values": [{"measurement": "response vs control in vivo at 10 µmol/kg", "setting": "Pneumocystis carinii [1]; [4]", "result": "220 ± 39.3", "unit": "%"}]}, {"smiles": "c1cc2oc3ccc(C4=NCCN4)cc3c2cc1C1=NCCN1", "note": "[Compound 2 (Example 2), 2,8-Di(2-imidazolinyl)dibenzofuran dihydrochloride]", "values": [{"measurement": "response vs control in vivo at 10 µmol/kg", "setting": "Pneumocystis carinii [1]; [4]", "result": "97.4 ± 31.9", "unit": "%"}]}, {"smiles": "NC(=NO)c1ccc2sc3ccc(C(N)=NO)cc3c2c1", "note": "[Compound 3]", "values": [{"measurement": "response vs control in vivo at 10 µmol/kg", "setting": "Pneumocystis carinii [2]; [5]", "result": "1.3 ± 0.84", "unit": "%"}]}, {"smiles": "Cl.Cl.N=C(NO)c1ccc2oc3ccc(C(=N)NO)cc3c2c1", "note": "[Compound 4 (Example 2), 2,8-Di(N-hydroxylamidino)dibenzofuran dihydrochloride]", "values": [{"measurement": "response vs control in vivo at 33 µmol/kg", "setting": "Pneumocystis carinii [1]; once daily 14 days, 8 rats", "result": "45.1 ± 21.6", "unit": "%"}, {"measurement": "response vs control in vivo at 10 µmol/kg", "setting": "Pneumocystis carinii [1]; [4]", "result": "15.8 ± 14.6", "unit": "%"}, {"measurement": "conversion of diamidoxime to diamidine (in words)", "setting": "whole cells", "result": "less efficient than conversion of pentamidoxime to pentamidine by whole cells"}]}, {"smiles": "CC(C)NC(=N)c1ccc2c(c1)oc1cc(C(=N)NC(C)C)ccc12", "note": "[Compound 7 (Example 2), 3,7-Di(isopropylamidino)dibenzofuran dihydrochloride]", "values": [{"measurement": "response vs control in vivo at 10 µmol/kg", "setting": "Pneumocystis carinii [1]; [4]", "result": "0.28 ± 0.27", "unit": "%"}]}, {"smiles": "N=C(N)c1ccc2c(c1)oc1cc(C(=N)N)ccc12", "note": "[Compound 5 (Example 2), 3,7-Diamidinodibenzofuran dihydrochloride]", "values": [{"measurement": "response vs control in vivo at 10 µmol/kg", "setting": "Pneumocystis carinii [1]; [4]", "result": "183 ± 38.3", "unit": "%"}]}, {"smiles": "N=C(N)c1ccc2c(c1)sc1cc(C(=N)N)ccc12", "note": "[Compound 7]", "values": [{"measurement": "response vs control in vivo at 10 µmol/kg", "setting": "Pneumocystis carinii [2]; [5]", "result": "36 ± 9.59", "unit": "%"}]}, {"smiles": "Cl.Cl.N=C(NO)c1ccc2c(c1)sc1cc(C(=N)NO)ccc12", "note": "[Compound 9 (Example 1), 3,7-Bis(N-hydroxyamidino)dibenzothiophene dihydrochloride]", "values": [{"measurement": "response vs control in vivo at 10 µmol/kg", "setting": "Pneumocystis carinii [2]; [5]", "result": "112 ± 76.5", "unit": "%"}, {"measurement": "response vs control in vivo at 33 µmol/kg", "setting": "Pneumocystis carinii [2]; Pneumocystis carinii, in Rattus norvegicus, po, 336 h, 33.0 μmol/kg/day by oral gavage, once daily 14 days, 4 rats, read-out: Pneumocystis carinii % Saline control ± std error", "result": "45.6 ± 26.1", "unit": "%"}, {"measurement": "anti-PCP activity by both routes (in words)", "setting": "Pneumocystis carinii [2]; intravenous and oral administration", "result": "inactive by both intravenous and oral administration"}]}, {"smiles": "CC(C)NC(=N)c1ccc2c(c1)sc1cc(C(=N)NC(C)C)ccc12", "note": "[Compound 8]", "values": [{"measurement": "response vs control in vivo at 10 µmol/kg", "setting": "Pneumocystis carinii [2]; [5]", "result": "0.04 ± 0.02", "unit": "%"}]}, {"smiles": "N/C(=N\\O)c1ccc(OCCCCCOc2ccc(/C(N)=N/O)cc2)cc1", "note": "[Pentamidoxime, reference compound]", "values": [{"measurement": "response vs control in vivo at 33 µmol/kg", "setting": "Pneumocystis carinii [1]; once daily 14 days, 8 rats", "result": "13.8 ± 9.12", "unit": "%"}, {"measurement": "response vs control in vivo at 22 µmol/kg", "setting": "Pneumocystis carinii [1]; 22.0 μmol/kg/day i.v. via tail vein, once daily 14 days, 8 rats", "result": "0.11 ± 0.02", "unit": "%"}, {"measurement": "prodrug behaviour (in words)", "setting": "Pneumocystis carinii [3]", "result": "an effective prodrug"}]}, {"smiles": "O=S1(=O)c2ccc(C3=NCCN3)cc2-c2cc(C3=NCCN3)ccc21", "note": "[Compound 6]", "values": [{"measurement": "response vs control in vivo at 10 µmol/kg", "setting": "Pneumocystis carinii [2]; [5]", "result": "93.5 ± 9.58", "unit": "%"}]}, {"smiles": "c1cc2sc3ccc(C4=NCCN4)cc3c2cc1C1=NCCN1", "note": "[Compound 5]", "values": [{"measurement": "response vs control in vivo at 10 µmol/kg", "setting": "Pneumocystis carinii [2]; [5]", "result": "28 ± 12.7", "unit": "%"}]}, {"smiles": "N=C(N)c1ccc(OCCCCCOc2ccc(C(=N)N)cc2)cc1", "note": "[Pentamidine, reference compound]", "values": [{"measurement": "response vs control in vivo at 22 µmol/kg", "setting": "Pneumocystis carinii [2]; Pneumocystis carinii, in Rattus norvegicus, iv, 336 h, read-out: Pneumocystis carinii % Saline control ± std error", "result": "0.74 ± 0.12", "unit": "%"}, {"measurement": "Cysts/g lung counts", "setting": "Pneumocystis carinii [2]; pentamidine group pooled across experiments, n = 52, 22.0 μmol/kg/day iv", "result": "0.51 × 10^6 cysts/g lung"}, {"measurement": "response vs control in vivo at 22 µmol/kg", "setting": "Pneumocystis carinii [1]", "result": "0.8 ± 0.17", "unit": "%"}, {"measurement": "Cysts/g lung counts", "setting": "Pneumocystis carinii [1]; pentamidine control group pooled across experiments, n = 42", "result": "0.38 × 10^6 cysts/g lung"}]}, {"smiles": "CC(C)NC(=N)c1ccc2sc3ccc(C(=N)NC(C)C)cc3c2c1", "note": "[Compound 2]", "values": [{"measurement": "response vs control in vivo at 0.1 µmol/kg", "setting": "Pneumocystis carinii [2]; Pneumocystis carinii, in Rattus norvegicus, iv, 336 h, 0.1 μmol/kg/day iv, once daily 14 days, rats, read-out: Pneumocystis carinii % Saline control ± std error", "result": "94.8 ± 28.3", "unit": "%"}, {"measurement": "response vs control in vivo at 1 µmol/kg", "setting": "Pneumocystis carinii [2]; Pneumocystis carinii, in Rattus norvegicus, iv, 336 h, 1.0 μmol/kg/day iv, once daily 14 days, rats, read-out: Pneumocystis carinii % Saline control ± std error", "result": "12.8 ± 4.02", "unit": "%"}, {"measurement": "response vs control in vivo at 2.5 µmol/kg", "setting": "Pneumocystis carinii [2]; Pneumocystis carinii, in Rattus norvegicus, iv, 336 h, 2.5 μmol/kg/day iv, once daily 14 days, rats, read-out: Pneumocystis carinii % Saline control ± std error", "result": "0.19 ± 0.1", "unit": "%"}, {"measurement": "response vs control in vivo at 5 µmol/kg", "setting": "Pneumocystis carinii [2]; Pneumocystis carinii, in Rattus norvegicus, iv, 336 h, 5.0 μmol/kg/day iv, once daily 14 days, rats, read-out: Pneumocystis carinii % Saline control ± std error", "result": "0.04 ± 0.01", "unit": "%"}, {"measurement": "response vs control in vivo at 10 µmol/kg", "setting": "Pneumocystis carinii [2]; [5]", "result": "0.01 ± 0.01", "unit": "%"}]}, {"smiles": "CC(C)NC(=N)c1ccc2oc3ccc(C(=N)NC(C)C)cc3c2c1", "note": "[Compound 3 (Example 2), 2,8-Di(N-isopropylamidino)dibenzofuran dihydrochloride]", "values": [{"measurement": "response vs control in vivo at 10 µmol/kg", "setting": "Pneumocystis carinii [1]; [4]", "result": "0.5 ± 0.27", "unit": "%"}]}, {"smiles": "N=C(N)c1ccc2oc3ccc(C(=N)N)cc3c2c1", "note": "[Compound 1 (Example 2), 2,8-Diamidinodibenzofuran dihydrochloride]", "values": [{"measurement": "response vs control in vivo at 10 µmol/kg", "setting": "Pneumocystis carinii [1]", "result": "7.15 ± 3.81", "unit": "%"}, {"measurement": "response vs control in vivo at 22 µmol/kg", "setting": "Pneumocystis carinii [1]", "result": "0.1 ± 0.02", "unit": "%"}]}, {"smiles": "N=C(N)c1ccc2sc3ccc(C(=N)N)cc3c2c1", "note": "[Compound 1]", "values": [{"measurement": "response vs control in vivo at 10 µmol/kg", "setting": "Pneumocystis carinii [2]; [5]", "result": "0.1 ± 0.03", "unit": "%"}]}, {"smiles": "NC(=NO)c1ccc2c(c1)oc1cc(C(N)=NO)ccc12", "note": "[Compound 8 (Example 2), 3,7-Di(A-hydroxylamidino)dibenzofuran dihydrochloride]", "values": [{"measurement": "response vs control in vivo at 33 µmol/kg", "setting": "Pneumocystis carinii [1]; once daily 14 days, 8 rats", "result": "150 ± 54", "unit": "%"}, {"measurement": "response vs control in vivo at 10 µmol/kg", "setting": "Pneumocystis carinii [1]; [4]", "result": "166 ± 109", "unit": "%"}]}]}
